Data published in US10336792B2, “Antimicrobial peptide dendrimers” (priority 2014, dated 2019).
Values after ≈ are worked out from the molar mass of the structure shown. Positions of bridges follow the written chain, without caps; N, C: chain ends. Non-standard residues stand in square brackets, D forms with d. Residues, ends and D or L forms follow the SMILES beside them. Groups on a side chain read outwards from the residue. Chains are numbered I, II in the order given. *: point of attachment. Stearoyl = CCCCCCCCCCCCCCCCCC(=O)*; X1 = CCCCCCCCCCCCCCCCCCCCCCCC(=O)*; Lauroyl = CCCCCCCCCCCC(=O)*; dDap = NC[C@@H](N)C(=O)O

Key:
Type in all cases: cell-based
[1] = test system: Pseudomonas aeruginosa (strain PA01); assay: microbe, parasite or virus in culture; conditions: strain
How it was run: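 P. aeruginosa PAO1 grown overnight in LB, diluted to OD600 0.001 and mixed with ⅔-step peptide dilutions, then incubated at 37 °C for 18–24 h. After MTT staining, the lowest concentration with no visible growth was read by eye as the MIC.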

[2] = test system: Staphylococcus aureus (COL, MRSA reference strain); conditions: COL, reference strain
Description: Antimicrobial activity was assayed against P. aeruginosa PA01 (WT), P. aeruginosa PT1482 (A-), PT1485 (A-B-), PT1149 (A-B-C-algC), PT331 (Z61) (LPS mutants), P. aeruginosa PEJ2.6, PEJ9.1, ZEM1.A, ZEM9.A (clinical isolates from Université de Genève/Centre Médical Universitaire), Burkholderia cenocepacia (B. ceno), Staphylococcus aureus (S. aureus, MRSA strain) and Acinetobacter baumannii (A. baum) (clinical isolates from Université de Genève/Centre Médical Universitaire). To determine the minimal inhibitory concentration (MIC), microdilution broth method was used. A colony of bacteria was grown in MH-medium overnight at 37° C. The samples were prepared as stock solutions of 8 mg mL^−1 in H2O, diluted to the beginning concentration of 32, 64, 128 or 256 μg/mL in 300 μL MH-medium, added to the first well of 96-well microtiterplate (TPP, untreated) and diluted serially by ½. The concentration of the bacteria was quantified by measuring absorbance at 600 nm and diluted to OD600=0.022 in MH-medium. The sample solutions (150 μL) were mixed with 4 μL diluted bacterial suspension with a final inoculation of about of 5×10^5 CFU. The plates were incubated at 37° C. until satisfactory growth (˜18 h). For each test, two columns of the plate were kept for sterility control (SC, broth only) and growth control (GC, broth with bacterial inoculums, no antibiotics). The minimal inhibitory concentration (MIC) was defined as the lowest concentration of the antimicrobial substance (peptide dendrimer) that inhibited visible growth of the tested bacteria with the unaided eye. For microbiological study Polymyxin was used as references.
Ten of the most promising compounds (FIG. 5) were tested for their efficiency against four clinical isolates of P. aeruginosa (ZEM9.A, ZEM1.A, PEJ2.6, PEJ9.1), one S. aureus (COL, MRSA reference strain) and one A. baumannii strain. For the experiments in Genève the peptide dendrimers and reference compounds (polymyxin) were dissolved in PBS and the assay was carried out in Müller-Hinton (MH) broth with a two-fold dilution.

[3] = test system: Bacillus subtilis (strain BR151); conditions: strain BR151
How it was run: (§1)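 Broth microdilution MIC in LB; overnight cultures diluted to OD600 0.001 and mixed 1:1 with ⅔-serially diluted samples (stock 1 mg mL^−1 in H2O), 37° C for 18-24 h. MTT (0.1%) added; MIC read by eye as lowest concentration inhibiting visible growth (yellow).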

[4] = test system: Escherichia coli (strain DH5α); conditions: DH5α
How it was run: as §1

SMILES	MIC P. aeruginosa PAO1 [1] [µg/mL]	MIC S. aureus (COL, MRSA reference strain) [2]	MIC B. subtilis BR151 [3] [µg/mL]	MIC E. coli DH5α [4] [µg/mL]
CCCCCCCCCCCC(=O)NCCCC[C@H](NC(=O)[C@H](CC(C)C)NC(=O)[C@H](CCCCN)NC(=O)[C@H](CCCCNC(=O)[C@H](CC(C)C)NC(=O)[C@H](CCCCN)NC(=O)[C@H](CCCCNC(=O)[C@H](CC(C)C)NC(=O)[C@@H](N)CCCCN)NC(=O)[C@H](CC(C)C)NC(=O)[C@@H](N)CCCCN)NC(=O)[C@H](CC(C)C)NC(=O)[C@H](CCCCN)NC(=O)[C@H](CCCCNC(=O)[C@H](CC(C)C)NC(=O)[C@@H](N)CCCCN)NC(=O)[C@H](CC(C)C)NC(=O)[C@@H](N)CCCCN)C(N)=O [MSt-263, (KL)4(KKL)2(KKLKC12)] (I: H-KLK([Leu-Lys])KLKKLK(Lauroyl)-NH2 / II: H-KLK([Leu-Lys])KL; amide I:6-II:C)	1 (≈ 0.416 µM)	below 20 μg/mL	2 (≈ 0.833 µM)	1 (≈ 0.416 µM)
CCCCCCCCCCCCCCCCCCCCCCCC(=O)NCCCC[C@H](NC(=O)[C@H](CC(C)C)NC(=O)[C@H](CCCCN)NC(=O)[C@H](CCCCNC(=O)[C@H](CC(C)C)NC(=O)[C@H](CCCCN)NC(=O)[C@H](CCCCNC(=O)[C@H](CC(C)C)NC(=O)[C@H](CCCCN)NC(=O)[C@H](CCCCNC(=O)[C@H](CC(C)C)NC(=O)[C@@H](N)CCCCN)NC(=O)[C@H](CC(C)C)NC(=O)[C@@H](N)CCCCN)NC(=O)[C@H](CC(C)C)NC(=O)[C@H](CCCCN)NC(=O)[C@H](CCCCNC(=O)[C@H](CC(C)C)NC(=O)[C@@H](N)CCCCN)NC(=O)[C@H](CC(C)C)NC(=O)[C@@H](N)CCCCN)NC(=O)[C@H](CC(C)C)NC(=O)[C@H](CCCCN)NC(=O)[C@H](CCCCNC(=O)[C@H](CC(C)C)NC(=O)[C@H](CCCCN)NC(=O)[C@H](CCCCNC(=O)[C@H](CC(C)C)NC(=O)[C@@H](N)CCCCN)NC(=O)[C@H](CC(C)C)NC(=O)[C@@H](N)CCCCN)NC(=O)[C@H](CC(C)C)NC(=O)[C@H](CCCCN)NC(=O)[C@H](CCCCNC(=O)[C@H](CC(C)C)NC(=O)[C@@H](N)CCCCN)NC(=O)[C@H](CC(C)C)NC(=O)[C@@H](N)CCCCN)C(N)=O [MSt-285, (KL)8(KKL)4(KKL)2(KKLKC24)] (I: H-KLK([Leu-Lys])KLKKLKKLK(X1)-NH2 / II: H-KLK([Leu-Lys])KLKKL / III: H-KLK([Leu-Lys])KL / IV: H-KLK([Leu-Lys])KL; amide I:6-IV:C, I:9-II:C, II:6-III:C)	12 (≈ 2.39 µM)	–	16 (≈ 3.19 µM)	5 (≈ 0.997 µM)
CCCCCCCCCCCCCCCCCC(=O)NCCCC[C@H](NC(=O)[C@H](CC(C)C)NC(=O)[C@H](CCCCN)NC(=O)[C@H](CCCCNC(=O)[C@H](CC(C)C)NC(=O)[C@H](CCCCN)NC(=O)[C@H](CCCCNC(=O)[C@H](CC(C)C)NC(=O)[C@@H](N)CCCCN)NC(=O)[C@H](CC(C)C)NC(=O)[C@@H](N)CCCCN)NC(=O)[C@H](CC(C)C)NC(=O)[C@H](CCCCN)NC(=O)[C@H](CCCCNC(=O)[C@H](CC(C)C)NC(=O)[C@@H](N)CCCCN)NC(=O)[C@H](CC(C)C)NC(=O)[C@@H](N)CCCCN)C(N)=O [MSt-286, (KL)4(KKL)2(KKLKC18)] (I: H-KLK([Leu-Lys])KLKKLK(Stearoyl)-NH2 / II: H-KLK([Leu-Lys])KL; amide I:6-II:C; N-terminus assumed)	4 (≈ 1.61 µM)	–	4 (≈ 1.61 µM)	3 (≈ 1.21 µM)

Results, then the compound that gave them:

MIC P. aeruginosa PAO1 [1] [µg/mL]	MIC S. aureus (COL, MRSA reference strain) [2]	MIC B. subtilis BR151 [3] [µg/mL]	MIC E. coli DH5α [4] [µg/mL]	SMILES
3 (≈ 0.684 µM)	–	4 (≈ 0.912 µM)	4 (≈ 0.912 µM)	CC(C)C[C@H](NC(=O)[C@H](CCCCN)NC(=O)[C@H](CCCCNC(=O)[C@H](CC(C)C)NC(=O)[C@@H](N)CCCCN)NC(=O)[C@H](CC(C)C)NC(=O)[C@@H](N)CCCCN)C(=O)NCCCC[C@H](NC(=O)[C@H](CC(C)C)NC(=O)[C@H](CCCCN)NC(=O)[C@H](CCCCNC(=O)[C@H](CC(C)C)NC(=O)[C@@H](N)CCCCN)NC(=O)[C@H](CC(C)C)NC(=O)[C@@H](N)CCCCN)C(=O)N[C@@H](CCCCN)C(=O)N[C@@H](CC(C)C)C(=O)N[C@@H](CSSC[C@H](NC(=O)[C@H](CC(C)C)NC(=O)[C@H](CCCCN)NC(=O)[C@H](CCCCNC(=O)[C@H](CC(C)C)NC(=O)[C@H](CCCCN)NC(=O)[C@H](CCCCNC(=O)[C@H](CC(C)C)NC(=O)[C@@H](N)CCCCN)NC(=O)[C@H](CC(C)C)NC(=O)[C@@H](N)CCCCN)NC(=O)[C@H](CC(C)C)NC(=O)[C@H](CCCCN)NC(=O)[C@H](CCCCNC(=O)[C@H](CC(C)C)NC(=O)[C@@H](N)CCCCN)NC(=O)[C@H](CC(C)C)NC(=O)[C@@H](N)CCCCN)C(N)=O)C(N)=O [CCS-3 dimer, ((KL)4(KKL)2KKLC)2] (I: H-KLK([Leu-Lys])KLKKLC-NH2 / II: H-KLK([Leu-Lys])KLKKLC-NH2 / III: H-KLK([Leu-Lys])KL / IV: H-KLK([Leu-Lys])KL; amide I:6-III:C, II:6-IV:C; disulfide I:9-II:9; N-terminus assumed)
11 (≈ 2.22 µM)	–	6 (≈ 1.21 µM)	4 (≈ 0.807 µM)	CC(C)C[C@@H](NC(=O)[C@@H](CCCNC(=N)N)NC(=O)[C@@H](CCCCNC(=O)[C@@H](CC(C)C)NC(=O)[C@@H](CCCNC(=N)N)NC(=O)[C@@H](CCCCNC(=O)[C@@H](CC(C)C)NC(=O)[C@@H](CCCNC(=N)N)NC(=O)[C@@H](CCCCNC(=O)[C@@H](CC(C)C)NC(=O)[C@H](N)CCCNC(=N)N)NC(=O)[C@@H](CC(C)C)NC(=O)[C@H](N)CCCNC(=N)N)NC(=O)[C@@H](CC(C)C)NC(=O)[C@@H](CCCNC(=N)N)NC(=O)[C@@H](CCCCNC(=O)[C@@H](CC(C)C)NC(=O)[C@H](N)CCCNC(=N)N)NC(=O)[C@@H](CC(C)C)NC(=O)[C@H](N)CCCNC(=N)N)NC(=O)[C@@H](CC(C)C)NC(=O)[C@@H](CCCNC(=N)N)NC(=O)[C@@H](CCCCNC(=O)[C@@H](CC(C)C)NC(=O)[C@@H](CCCNC(=N)N)NC(=O)[C@@H](CCCCNC(=O)[C@@H](CC(C)C)NC(=O)[C@H](N)CCCNC(=N)N)NC(=O)[C@@H](CC(C)C)NC(=O)[C@H](N)CCCNC(=N)N)NC(=O)[C@@H](CC(C)C)NC(=O)[C@@H](CCCNC(=N)N)NC(=O)[C@@H](CCCCNC(=O)[C@@H](CC(C)C)NC(=O)[C@H](N)CCCNC(=N)N)NC(=O)[C@@H](CC(C)C)NC(=O)[C@H](N)CCCNC(=N)N)C(N)=O [MSt-155, (rl)8(krl)4(krl)2(krl)] (I: H-[dR][dL][dK]([dL-dR])[dR][dL][dK][dR][dL][dK][dR][dL]-NH2 / II: H-[dR][dL][dK]([dL-dR])[dR][dL][dK][dR][dL] / III: H-[dR][dL][dK]([dL-dR])[dR][dL] / IV: H-[dR][dL][dK]([dL-dR])[dR][dL]; amide I:6-IV:C, I:9-II:C, II:6-III:C)
10 (≈ 2.15 µM)	–	7 (≈ 1.5 µM)	4 (≈ 0.858 µM)	CC(C)C[C@@H](NC(=O)[C@@H](CCCNC(=N)N)NC(=O)[C@@H](CNC(=O)[C@@H](CC(C)C)NC(=O)[C@@H](CCCNC(=N)N)NC(=O)[C@@H](CNC(=O)[C@@H](CC(C)C)NC(=O)[C@@H](CCCNC(=N)N)NC(=O)[C@@H](CNC(=O)[C@@H](CC(C)C)NC(=O)[C@H](N)CCCNC(=N)N)NC(=O)[C@@H](CC(C)C)NC(=O)[C@H](N)CCCNC(=N)N)NC(=O)[C@@H](CC(C)C)NC(=O)[C@@H](CCCNC(=N)N)NC(=O)[C@@H](CNC(=O)[C@@H](CC(C)C)NC(=O)[C@H](N)CCCNC(=N)N)NC(=O)[C@@H](CC(C)C)NC(=O)[C@H](N)CCCNC(=N)N)NC(=O)[C@@H](CC(C)C)NC(=O)[C@@H](CCCNC(=N)N)NC(=O)[C@@H](CNC(=O)[C@@H](CC(C)C)NC(=O)[C@@H](CCCNC(=N)N)NC(=O)[C@@H](CNC(=O)[C@@H](CC(C)C)NC(=O)[C@H](N)CCCNC(=N)N)NC(=O)[C@@H](CC(C)C)NC(=O)[C@H](N)CCCNC(=N)N)NC(=O)[C@@H](CC(C)C)NC(=O)[C@@H](CCCNC(=N)N)NC(=O)[C@@H](CNC(=O)[C@@H](CC(C)C)NC(=O)[C@H](N)CCCNC(=N)N)NC(=O)[C@@H](CC(C)C)NC(=O)[C@H](N)CCCNC(=N)N)C(N)=O [MSt-156, (rl)8(brl)4(brl)2(brl)] (I: H-[dR][dL][dDap]([dL-dR])[dR][dL][dDap][dR][dL][dDap][dR][dL]-NH2 / II: H-[dR][dL][dDap]([dL-dR])[dR][dL][dDap][dR][dL] / III: H-[dR][dL][dDap]([dL-dR])[dR][dL] / IV: H-[dR][dL][dDap]([dL-dR])[dR][dL]; amide I:6-IV:C, I:9-II:C, II:6-III:C)
